In US20160000796A1, “PHARMACEUTICAL COMPOSITION FOR USE IN PREVENTION OR TREATMENT OF CANCER” (priority 2013, published 2016):

Assays:
[1] = system: HOP—62 (lung cancer cell line lacking TDP1 expression); experiment: Cellular proliferation (MTS) of lung cancer cell line HOP—62; type: cell-based; conditions: 100, 200 or 300 μM, 72 hours
Experimental: Lung cancer cell lines lacking TDP1 expression, HOP—62 and NCI_H522, were used. NCI_H1299, a lung cancer cell line expressing TDP1, was used as a control. HOP—62 and NCI_H522 were provided by Dr. Pommier (DNA Repair. 2014 January; 13: 1-9).
Abacavir was added to each of the cell lines at a concentration of 0 μM (DMSO was added instead of abacavir), 100 μM, 200 μM or 300 μM. The cells were seeded on a 96-well plate at a concentration of 3×10^3 cells/100 μL/well and cultured for 4 hours or 72 hours. After the culture of a predetermined time, MTS assay was performed using a reagent for cellular proliferation, test, Aqueous One Solution Cell Proliferation (trade name, manufactured by Promega), in the same manner as in Example 1. The cellular proliferation was represented by a ratio relative to that of the control (solvent control) on Day 0 that was regarded as 100%.

[2] = system: HTLV-1-producing cell line, MT2; experiment: Cellular proliferation test (MTS assay), MT2; type: cell-based
Experimental: (§1) HTLV-1-producing cell lines, MT2 (transformant with HTLV-1, JCRB cell No: JCRB1210) and HUT102 (ATL-derived cell line, ATCC No: TIB-162), were used.
(§2) Each nucleoside analogue reverse transcriptase inhibitor was added to the medium for cells at a final concentration of 100 μM. Cells were seeded on a 96-well plate at a concentration of 1×10^4 cells/100 μL/well and cultured for 4 hours (Day 0), 48 hours (Day 2) or 96 hours (Day 4). A medium added DMSO (solvent control) alone was used as a control. Cellular proliferation was examined by MTS assay. Specifically, after the cells were cultured for a predetermined time, a reagent for cellular proliferation test, Aqueous One Solution Cell Proliferation (trade name, manufactured by Promega), was added to the cells. Four hours later, absorbance at 490 nm was measured. The cellular proliferation was represented by a ratio relative to that of the control (solvent control) on Day 0 that was regarded as 1.
(§3) Abacavir was added to MT2 and HUT102 used in Example 1 at a concentration of 0 μM (DMSO was added instead of abacavir), 10 μM, 25 μM, 50 μM, 75 μM or 100 μM. The cells were seeded on a 96-well plate at a concentration of 1×10^4 cells/100 μL/well and cultured for 4 hours or 48 hours. […]

[3] = system: DT40-derived mutants each lacking a DNA repair enzyme; experiment: Cellular proliferation of DT40-derived mutants (CellTiter-Glo ATP method); type: cell-based, chicken; conditions: 25 μM, 48 hours
Source text: This example used wild-type DT40, which is a chicken B cell-derived cell line, and DT40-devired mutants each lacking a DNA repair enzyme. Those cell lines are available from the laboratory of Radiation Genetics, Graduate School of Medicine and Faculty of Medicine Kyoto University (see, Literatures: (1) Mol Cell Biol. 2001 April; 21 (8): 2858-66. (2) PLoS Genet. 2011 July; 7 (7): e1002148. (3) Mol Cell Biol. 2008 October; 28 (19): 6113-22. (4) J Biol Chem. 2012 Apr. 13; 287 (16): 12848-57.).
Abacavir was added to the medium of each cell line at a final concentration of 25 μM. The cells were seeded on a 96-well plate at a concentration of 1×10^4 cells/100 μL/well and cultured for 48 hours. After the culture, cellular proliferation was determined by CellTiter-Glo Luminescent Cell Viability Assay (trade name, manufactured by Promega) in accordance with the ATP method.
Specifically, the value on the vertical axis is −1 when the proliferation rate compared to the wild-type is 50%, and −2 when the proliferation rate compared to the wild-type is 25%.

[4] = system: non-ATL cell line, Jurkat; experiment: Cell-cycle analysis by flow cytometry (PI), Jurkat; type: cell-based, human; conditions: 10 μM or 100 μM, 24 hours
Experimental: To an ATL cell line, ED40515 (−), or a non-ATL cell line, Jurkat, DMSO (solvent control), adriamycin (ADR, positive control) or abacavir (10 μM or 100 μM) was added.

[5] = system: ATL43T (non-virus-producing ATL cell line); experiment: Cellular proliferation (MTS assay), ATL43T; type: cell-based
Experimental: as §2
(§4) This example used HTLV-1-infected cell lines (non-virus-producing ATL cell lines): ED40515 (−), ED40515 (+), and ATL43T (all were provided by Prof. Michiyuki Maeda who produced the cells); and SYK-11L (+) (prepared in the laboratory of the inventors).
(§5) The six types of nucleoside analogue reverse transcriptase inhibitors as used in Example 1 were used and cellular proliferation was examined in the same manner as in Example 1. […]

[6] = system: HTLV-1-producing cell line, HUT102 (derived from ATL); experiment: Cellular proliferation test (MTS assay), HUT102; type: cell-based
Experimental: as §1, §2, §3

[7] = system: ED40515 (+) (non-virus-producing ATL cell line); experiment: Cellular proliferation (MTS assay), ED40515 (+); type: cell-based
Experimental: as §2, §4, §5

[8] = 100 μM, Day 0, 2, 4, compared among six NRTIs
[9] = 10, 25, 50, 75, 100 μM, 48 hours

Compound: Nc1nc(NC2CC2)c2ncn([C@H]3C=C[C@@H](CO)C3)c2n1 [abacavir, (−)-(1S,4R)-4-[2-amino-6-(cyclopropylamino)-9H-purin-9-yl]-2-cyclopentene-1-methanol]
- cellular proliferation [1]: suppressed cellular proliferation of HOP—62 and NCI_H522 lacking TDP1 expression in a concentration dependent manner
- cellular proliferation (ratio relative to solvent control on Day 0) [2, 8]: most strongly suppressed
- cellular proliferation, dose dependence [2, 9]: suppressed cellular proliferation of both cell lines in a dose-dependent manner
- cellular proliferation relative to wild-type DT40 (Log2 Gene/WT) ([3]; DT40 mutant lacking BRCA1): showed a suppressive effect
- cellular proliferation relative to wild-type DT40 (Log2 Gene/WT) ([3]; DT40 mutant lacking GEN1): showed a suppressive effect
- cellular proliferation relative to wild-type DT40 (Log2 Gene/WT) ([3]; DT40 mutant lacking PCNA): showed a suppressive effect
- cellular proliferation relative to wild-type DT40 (Log2 Gene/WT) ([3]; DT40 mutant lacking TDP1): showed a suppressive effect
- cellular proliferation relative to wild-type DT40 (Log2 Gene/WT) ([3]; DT40 mutant lacking XRCC2): showed a suppressive effect
- cell cycle (ratio of cells in G0G1/S/G2 phase) [4]: did not affect the cell cycle
- cellular proliferation ([5]; 100 μM): strong suppressive effect
- cellular proliferation, dose dependence ([5]; 10-100 μM, Day 0, 2, 4): suppressed cellular proliferation of all the cell lines in a dose-dependent manner
- cellular proliferation (ratio relative to solvent control on Day 0) [6, 8]: most strongly suppressed
- cellular proliferation, dose dependence [6, 9]: suppressed cellular proliferation of both cell lines in a dose-dependent manner
- cellular proliferation ([7]; 100 μM): strong suppressive effect
- cellular proliferation, dose dependence ([7]; 10-100 μM, Day 0, 2, 4): suppressed cellular proliferation of all the cell lines in a dose-dependent manner
